Assays:
[1] = target: T1, Recombinant human TYK2 catalytic domain (Homo sapiens, UniProt P29597); assay: TYK2 inhibition assay; assay type: biochemical; conditions: polyGT substrate, 33P-gamma-ATP filter assay, 0.1 μM ATP
T1 construct: catalytic domain (amino acids 871-1187; catalog number 08-147); GST; purchased Carna Biosciences 08-147
T1 sequence (P29597 871-1187): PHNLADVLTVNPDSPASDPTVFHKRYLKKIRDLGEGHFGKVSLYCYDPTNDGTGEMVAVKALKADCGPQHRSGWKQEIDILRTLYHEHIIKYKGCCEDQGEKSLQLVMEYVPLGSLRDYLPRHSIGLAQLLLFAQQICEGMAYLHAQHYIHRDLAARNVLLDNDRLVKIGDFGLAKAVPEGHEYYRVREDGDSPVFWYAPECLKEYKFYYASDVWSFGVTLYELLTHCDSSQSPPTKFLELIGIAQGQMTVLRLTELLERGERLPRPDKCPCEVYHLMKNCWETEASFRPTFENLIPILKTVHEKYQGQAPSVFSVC
Description: Recombinant human TYK2 catalytic domain (amino acids 871-1187; catalog number 08-147) was purchased from Carna biosciences. 4 ng of TYK2 was incubated with 12.5 μg polyGT substrate (Sigma catalog number P0275) in kinase reaction buffer (25 mM Hepes pH 7.2, 50 mM NaCl, 0.5 mM EDTA, 1 mM DTT, 5 mM MnCl2, 10 mM MgCl2, 0.1% Brij-35, 0.1 μM non-radioactive ATP, 0.125 μCi ^33P-gamma-ATP (Perkin Elmer, catalog number NEG602K001MC) final concentrations) with or without 5 μL containing test compound or vehicle (DMSO, 1% final concentration), in a total volume of 25 μL, in a polypropylene 96-well plate (Greiner, V-bottom). After 90 min at 30° C., reactions were stopped by adding 25 μL/well of 150 mM phosphoric acid. All of the terminated kinase reaction was transferred to prewashed (75 mM phosphoric acid) 96 well filter plates (Perkin Elmer catalog number 6005177) using a cell harvester (Perkin Elmer). Plates were washed 6 times with 300 μL per well of a 75 mM phosphoric acid solution and the bottom of the plates was sealed. 40 μL/well of Microscint-20 was added, the top of the plates was sealed and readout was performed using the Topcount (Perkin Elmer). Kinase activity was calculated by subtracting counts per min (cpm) obtained in the presence of a positive control inhibitor (10 μM staurosporine) from cpm obtained in the presence of vehicle. The ability of a test compound to inhibit this activity was determined as: Percentage inhibition=((cpm determined for sample with test compound present−cpm determined for sample with positive control inhibitor)divided by(cpm determined in the presence of vehicle−cpm determined for sample with positive control inhibitor))*100.
(§1) Dose dilution series were prepared for the compounds enabling the testing of dose-response effects in the TYK2 assay and the calculation of the IC50 for each compound. Each compound was routinely tested at concentration of 20 μM followed by a ⅓ serial dilution, 8 points (20 μM-6.67 μM-2.22 μM-740 nM-247 nM-82 nM-27 nM-9 nM) in a final concentration of 1% DMSO. When potency of compound series increased, more dilutions were prepared and/or the top concentration was lowered (e.g. 5 μM, 1 μM).

[2] = target: T2, Recombinant human JAK3 catalytic domain (Homo sapiens, UniProt P52333); assay: JAK3 inhibition assay; assay type: biochemical; conditions: polyGT substrate, 33P-gamma-ATP filter assay, 1 μM ATP
T2 construct: catalytic domain (amino acids 795-1124; catalog number 08-046); purchased Carna Biosciences 08-046
Description: Recombinant human JAK3 catalytic domain (amino acids 795-1124; catalog number 08-046) was purchased from Carna Biosciences. 0.5 ng JAK3 protein was incubated with 2.5 μg polyGT substrate (Sigma catalog number P0275) in kinase reaction buffer (25 mM Tris pH 7.5, 0.5 mM EGTA, 10 mM MgCl2, 2.5 mM DTT, 0.5 mM Na3VO4, 5 mM b-glycerolphosphate, 0.01% Triton X-100, 1 μM non-radioactive ATP, 0.25 μCi ^33P-gamma-ATP (Perkin Elmer, catalog number NEG602K001MC) final concentrations) with or without 5 μL containing test compound or vehicle (DMSO, 1% final concentration), in a total volume of 25 μL, in a polypropylene 96-well plate (Greiner, V-bottom). After 45 min at 30° C., reactions were stopped by adding 25 μL/well of 150 mM phosphoric acid. All of the terminated kinase reaction was transferred to prewashed (75 mM phosphoric acid) 96 well filter plates (Perkin Elmer catalog number 6005177) using a cell harvester (Perkin Elmer). Plates were washed 6 times with 300 μL per well of a 75 mM phosphoric acid solution and the bottom of the plates was sealed. 40 μL/well of Microscint-20 was added, the top of the plates was sealed and readout was performed using the Topcount (Perkin Elmer). Kinase activity was calculated by subtracting counts per min (cpm) obtained in the presence of a positive control inhibitor (10 μM staurosporine) from cpm obtained in the presence of vehicle. The ability of a test compound to inhibit this activity was determined as: Percentage inhibition=((cpm determined for sample with test compound present−cpm determined for sample with positive control inhibitor)divided by(cpm determined in the presence of vehicle−cpm determined for sample with positive control inhibitor))*100.
as §1, with “JAK3” for “TYK2”, “⅕” for “⅓”, “10” for “8”, “points” for “points (20 μM-6.67 μM-2.22 μM-740 nM-247 nM-82 nM-27 nM-9 nM)”

T2 sequence (P52333 795-1124): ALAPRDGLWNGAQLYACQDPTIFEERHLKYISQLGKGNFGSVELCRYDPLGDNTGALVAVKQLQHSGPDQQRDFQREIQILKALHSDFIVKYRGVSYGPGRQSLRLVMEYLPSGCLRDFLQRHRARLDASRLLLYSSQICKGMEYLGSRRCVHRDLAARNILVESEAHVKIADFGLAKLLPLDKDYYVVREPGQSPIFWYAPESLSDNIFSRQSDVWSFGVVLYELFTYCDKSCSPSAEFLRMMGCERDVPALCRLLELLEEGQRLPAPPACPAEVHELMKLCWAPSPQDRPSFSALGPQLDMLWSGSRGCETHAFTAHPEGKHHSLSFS

IC50 [1] [nM] | IC50 [2] [nM] | SMILES
101 to 500 | 101 to 500 | CC(=O)Nc1cc2c(-c3ccc(CN4CCN(S(C)(=O)=O)CC4)cc3)cccn2n1 [Compound 25, N-(4-(4-((4-(methylsulfonyl)piperazin-1-yl)methyl)phenyl)pyrazolo[1,5-a]pyridin-2-yl)acetamide]
> 1000 | > 1000 | CC(=O)Nc1cc2c(-c3cnc(CN4CCN(S(C)(=O)=O)CC4)c(F)c3)cccn2n1 [Compound 26, N-(4-(5-fluoro-6-((4-(methylsulfonyl)piperazin-1-yl)methyl)pyridin-3-yl)pyrazolo[1,5-a]pyridin-2-yl)acetamide]
0.01 to 100 | 0.01 to 100 | CC(=O)Nc1cc2c(-c3ccc(CN4CCS(=O)(=O)CC4)c(F)c3)cccn2n1 [Compound 27, N-{4-[4-(1,1-Dioxo-thiomorpholin-4-ylmethyl)-3-fluoro-phenyl]-pyrazolo[1,5-a]pyridin-2-yl}-acetamide]
101 to 500 | 101 to 500 | CC(=O)Nc1cc2c(-c3ccc(CN4CCN(CC(F)(F)F)CC4)c(F)c3)cccn2n1 [Compound 28, N-(4-(3-fluoro-4-((4-(2,2,2-trifluoroethyl)piperazin-1-yl)methyl)phenyl)pyrazolo[1,5-a]pyridin-2-yl)acetamide]
0.01 to 100 | 101 to 500 | CC(=O)Nc1cc2c(-c3ccc(CN4CCC(S(C)(=O)=O)CC4)c(F)c3)cccn2n1 [Compound 29, N-(4-(3-fluoro-4((4-(methylsulfonyl)piperidin-1-yl)methyl)phenyl)pyrazolo[1,5-a]pyridin-2-yl)acetamide]
0.01 to 100 | 101 to 500 | CC(=O)Nc1cc2c(-c3ccc(CC(=O)N4CC(F)(F)C4)cc3)cccn2n1 [Compound 34, N-(4-(4-(2-(3,3-difluoroazetidin-1-yl)-2-oxoethyl)phenyl)pyrazolo[1,5-a]pyridin-2-yl)acetamide]
0.01 to 100 | 0.01 to 100 | CC(=O)Nc1cc2c(-c3ccc(CC(=O)N4CCCCC4)cc3)cccn2n1 [Compound 35, N-(4-(4-(2-oxo-2-(piperidin-1-yl)ethyl)phenyl)pyrazolo[1,5-a]pyridin-2-yl)acetamide]
0.01 to 100 | 101 to 500 | CC(=O)Nc1cc2c(-c3ccc(CC(=O)N4CCOCC4)cc3)cccn2n1 [Compound 36, N-(4-(4-(2-morpholino-2-oxoethyl)phenyl)pyrazolo[1,5-a]pyridin-2-yl)acetamide]
101 to 500 | 501 to 1000 | CC(=O)Nc1cc2c(-c3ccc(CC(=O)N4COCC4(C)C)cc3)cccn2n1 [Compound 38, N-(4-(4-(2-(4,4-dimethyloxazolidin-3-yl)-2-oxoethyl)phenyl)pyrazolo[1,5-a]pyridin-2-yl)acetamide]
0.01 to 100 | 0.01 to 100 | CC(c1ccc(-c2cccn3nc(NC(=O)C4CC4)cc23)cc1)N1CCN(S(C)(=O)=O)CC1 (centres unmarked) [Compound 43, N-(4-(4-(1-(4-(methylsulfonyl)piperazin-1-yl)ethyl)phenyl)pyrazolo[1,5-a]pyridin-2-yl)cyclopropanecarboxamide]
0.01 to 100 | 0.01 to 100 | C[C@@H]1CN(S(C)(=O)=O)CCN1Cc1ccc(-c2cccn3nc(NC(=O)C4CC4)cc23)cc1 [Compound 44, (R)-N-(4-(4-((2-methyl-4-(methylsulfonyl)piperazin-1-yl)methyl)phenyl)pyrazolo[1,5-a]pyridin-2-yl)cyclopropanecarboxamide]
0.01 to 100 | 101 to 500 | CC(=O)Nc1cc2c(-c3ccc(C(C)N4CCN(S(C)(=O)=O)CC4)cc3)cccn2n1 (centres unmarked) [Compound 45, N-(4-(4-(1-(4-(methylsulfonyl)piperazin-1-yl)ethyl)phenyl)pyrazolo[1,5-a]pyridin-2-yl)acetamide]
0.01 to 100 | 0.01 to 100 | C[C@H](c1ccc(-c2cccn3nc(NC(=O)C4CC4)cc23)cc1)N1CCN(S(C)(=O)=O)CC1 [Compound 46, (R)-N-(4-(4-(1-(4-(methylsulfonyl)piperazin-1-yl)ethyl)phenyl)pyrazolo[1,5-a]pyridin-2-yl)cyclopropanecarboxamide]
0.01 to 100 | 0.01 to 100 | C[C@@H](c1ccc(-c2cccn3nc(NC(=O)C4CC4)cc23)cc1)N1CCN(S(C)(=O)=O)CC1 [Compound 47, (S)-N-(4-(4-(1-(4-(methylsulfonyl)piperazin-1-yl)ethyl)phenyl)pyrazolo[1,5-a]pyridin-2-yl)cyclopropanecarboxamide]
101 to 500 | 0.01 to 100 | O=C(Nc1cc2c(-c3ccc(CN4CCCCC45COC5)cc3)cccn2n1)C1CC1 [Compound 48, N-(4-(4-(2-oxa-5-azaspiro[3.5]nonan-5-ylmethyl)phenyl)pyrazolo[1,5-a]pyridin-2-yl)cyclopropanecarboxamide]
0.01 to 100 | 0.01 to 100 | CS(=O)(=O)N1CC[C@@H](Oc2ccc(-c3cccn4nc(NC(=O)C5CC5)cc34)cc2)C1 [Compound 49, (R)-N-(4-(4-(1-(methylsulfonyl)pyrrolidin-3-yloxy)phenyl)pyrazolo[1,5-a]pyridin-2-yl)cyclopropanecarboxamide]

Source: patent publication US8975406B2, “Compound useful for the treatment of degenerative and inflammatory diseases” (Galapagos N.V., priority 2011, dated 2015)
